Measured values published in patent US6831199B1, “Pyrimidine compounds and derivatives thereof” (G. D. Searle & Co., priority 1995, dated 2004).
Counter-ions that a name gives are not always drawn.

Legend:
[1] = molecular target: T1, Human vitronectin receptor (αvβ3) (Homo sapiens, UniProt P05106+P06756); assay: Vitronectin adhesion assay (solid phase receptor assay, competition with biotinylated vitronectin); format: binding; conditions: read-out: AvB3 IC50
T1 construct: Human vitronectin receptor (αvβ3) was purified from human placenta; from tissue; host or cells: human placenta
How it was run: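 Purified human αvβ3 coated overnight at 4 °C in TBS with 1.0 mM Ca++, Mg++, Mn++, pH 7.4; compounds (top final 1.0×10^−4 M) competed with 1 nM biotinylated vitronectin for 2 h at room temperature. Bound ligand detected by HRP anti-biotin/OPD at A450; values normalized to no-competitor controls, four-parameter curve fit.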

[2] = molecular target: T2, Human fibrinogen receptor (αIIbβ3) (Homo sapiens, UniProt P05106+P08514); assay: Purified IIb/IIIa receptor assay (solid phase receptor assay, competition with biotinylated vitronectin); format: binding; conditions: read-out: IIb/IIIa IC50
T2 construct: Human fibrinogen receptor (αIIbβ3) was purified from outdated platelets; from tissue; host or cells: outdated human platelets
How it was run: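 Competition format: 1 nM biotinylated vitronectin plus test compound (highest 1.0×10^−4 M), 2 h at room temperature on wells coated with platelet-derived αIIbβ3. Buffer was TBS containing 1.0 mM Ca, Mg, Mn, pH 7.4. HRP anti-biotin readout at 450 nm; normalized to maximum binding, four-parameter curve fit.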

| SMILES | IC50 [1] [nM] | IC50 [2] [nM] |
| --- | --- | --- |
| C/N=C(/Nc1cccc(C(=O)NCC(=O)NC(CC(=O)O)c2cc(Cl)cc(Cl)c2)c1)NC(C)C (racemic) [Example 296, (±)3,5-dichloro-β-[[2-[[[3-[[[(1-methylethyl)amino](methylimino)methyl]amino]phenyl]carbonyl]amino]acetyl]amino]benzenepropanoic acid, trifluoroacetate salt] | 404 | 9450 |
| CCN/C(=N\C)Nc1cccc(C(=O)NCC(=O)NC(CC(=O)O)c2ccc(F)cc2)c1 (racemic) [Example 297, (±)β-[[2-[[[3-[[(ethylamino)(methylimino)methyl]amino]phenyl]carbonyl]amino]acetyl]amino]-4-fluorobenzenepropanoic acid, trifluoroacetate salt] | 89.8 | 3920 |
| C/N=C(/Nc1cccc(C(=O)NCC(=O)NC(CC(=O)O)c2ccc(F)cc2)c1)NC(C)C (racemic) [Example 298, (±)4-fluoro-β-[[2-[[[3-[[[(1-methylethyl)amino](methylimino)methyl]amino]phenyl]carbonyl]amino]acetyl]amino]benzenepropanoic acid, trifluoroacetate salt] | 252 | 5560 |
| C/N=C(\NCc1ccncc1)Nc1cccc(C(=O)NCC(=O)NC(CC(=O)O)c2ccc(F)cc2)c1 (racemic) [Example 299, (±)4-fluoro-β-[[2-[[[3-[[[(4-pyridinylmethyl)amino](methylimino)methyl]amino]phenyl]carbonyl]amino]acetyl]amino]benzenepropanoic acid, trifluoroacetate salt] | 109 | 927 |
| CC1(C)CN=C(Nc2cccc(C(=O)NCC(=O)NC(CC(=O)O)c3cc(Cl)cc(Cl)c3O)c2)NC1 (racemic) [Example 362, (±)3,5-dichloro-2-hydroxy-β-[[2-[[[3-[(1,4,5,6-tetrahydro-5,5-dimethylpyrimidin-2-yl)amino]phenyl]carbonyl]amino]acetyl]amino]benzenepropanoic acid, trifluoroacetate salt] | 0.84 | 7260 |
| N=C(N)Nc1cccc(C(=O)NCC(=O)NC(CC(=O)O)c2ncc[nH]2)c1 (racemic) [Example 364, (±)β-[[2-[[[3-[(aminoiminomethyl)amino]phenyl]carbonyl]amino]acetyl]amino]-1H-imidazole-2-propanoic acid, tris(trifluoroacetate)salt] | 3.58 | 223 |
| N=C(N)Nc1cccc(C(=O)NCC(=O)NC(CC(=O)O)c2c(F)c(F)cc(F)c2F)c1 (racemic) [Example 365, (±)β-[[2-[[[3-[(aminoiminomethyl)amino]phenyl]carbonyl]amino]acetyl]amino]-2,3,5,6-tetrafluorobenzenepropanoic acid, trifluoroacetate salt] | 16.9 | 8470 |
| CC1(C)CN=C(Nc2cccc(C(=O)NCC(=O)NC(CC(=O)O)c3cc(Cl)cc(Cl)c3)c2)NC1 (racemic) [Example 367, (±)3,5-dichloro-β-[[2-[[[3-[(1,4,5,6-tetrahydro-5,5-dimethylpyrimidin-2-yl)amino]phenyl]carbonyl]amino]acetyl]amino]benzenepropanoic acid, trifluoroacetate salt] | 0.35 | 1540 |
| N=C(N)Nc1cccc(C(=O)NCC(=O)NC(CC(=O)O)c2ccc(Cl)s2)c1 (stereo not drawn) [251(C), β-[[2-[[[3-[(aminoiminomethyl)amino]phenyl]carbonyl]amino]acetyl]amino]-5-chlorothiophene-2-propanoic acid, trifluoroacetate salt] | 0.76 | 124 |
| N=C(N)Nc1cccc(C(=O)NC2(C(=O)NC(CC(=O)O)c3cccnc3)CC2)c1 (stereo not drawn) [Example 19, β-[[1-[[[3-[(aminoiminomethyl)amino]phenyl]carbonyl]amino]cycloprop-1-yl]carbonyl]amino]pyridine-3-propanoic acid, bis(trifluoroacetate)salt] | 303 | 72000 |
| C#C[C@H](CC(=O)OCC)NC(=O)CNC(=O)c1cccc(NC(=N)N)c1 [Example 58, ethyl 3S-[[2-[[[3-[(aminoiminomethyl)amino]phenyl)carbonyl]amino]acetyl]amino]-4-pentynoate, trifluoroacetate salt] | 162 | 5740 |
| CC(NC(=O)c1cccc(NC(=N)N)c1)C(=O)NC(CC(=O)O)c1cccnc1 (stereo not drawn) [Example 82, β-[[2-[[[3-[(aminoiminomethyl)amino]phenyl]carbonyl]amino]-1-oxopropyl]amino]pyridine-3-propanoic acid, bis(trifluoroacetate)salt] | 334 | 353 |
| Cc1ccc(C(=O)NCC(=O)NC(CC(=O)O)c2cccnc2)cc1N (stereo not drawn) [Example 84, β-[[2-[[(3-amino-4-methylphenyl)carbonyl]amino]acetyl]amino]pyridine-3-propanoic acid, bis(trifluoroacetate)salt] | 2800 | 246 |
| CCOC(=O)CCNC(=O)CNC(=O)c1cccc(NC(=N)N)c1 [Example 96, N-[2-[[[3-[(aminoiminomethyl)amino]phenyl]carbonyl]amino]acetyl]-β-alanine, ethyl ester] | 1810 | 5400 |
| CCOC(=O)CC(NC(=O)CNC(=O)c1cccc(NC2=NCCS2)c1)c1cccnc1 (stereo not drawn) [Example 100, ethyl β-[[2-[[[3-[(4,5-dihydrothiazol-2-yl)amino]phenyl]carbonyl]amino]acetyl]amino]pyridine-3-propanoate, trifluoroacetate salt] | 8560 | > 100000 |
| O=C(O)CC(NC(=O)CNC(=O)c1cccc(NC2=NCCS2)c1)c1cccnc1 (stereo not drawn) [Example 101, β-[[2-[[[3-[(4,5-dihydrothiazol-2-yl)amino]phenyl]carbonyl]amino]acetyl]amino]pyridine-3-propanoic acid, trifluoroacetate salt] | 1680 | 65700 |
| CCOC(=O)CC(NC(=O)CNC(=O)c1cccc(NC(=O)Nc2ccccc2)c1)c1cccnc1 (stereo not drawn) [Example 107, ethyl β-[[2-[[[3-[[(phenylamino]carbonyl]amino]phenyl]carbonyl]amino]acetyl]amino]-pyridine-3-propanoate] | 6400 | 18700 |
| CCOC(=O)CC(NC(=O)CNC(=O)c1cccc(NC(N)=O)c1)c1cccnc1 (stereo not drawn) [Example 109, ethyl β-[[2-[[[3-(aminocarbonylamino]phenyl]carbonyl]amino]acetylamino]pyridine-3-propanoate, trifluoroacetate salt] | 575 | > 100000 |
| Cc1ccc(S(=O)(=O)NC(=O)Nc2cccc(C(=O)NCC(=O)NC(CC(=O)O)c3cccnc3)c2)cc1 (stereo not drawn) [Example 112, β-[[2-[[[3-[[[[(4-methylphenyl)sulfonyl]amino]carbonyl]amino]phenyl]carbonyl]amino]acetyl]amino]pyridine-3-propanoic acid, trifluoroacetate salt] | 284 | 6340 |
| CCOC(=O)CC(NC(=O)CNC(=O)c1cccc(NC(N)=S)c1)c1cccnc1 (stereo not drawn) [Example 113, ethyl β-[[2-[[[3-[(aminothioxomethyl)amino]phenyl]carbonyl]amino]acetyl]amino]pyridine-3-propanoate, trifluoroacetate salt] | 276 | ≥ 100000 |
| CCOC(=O)CC(NC(=O)CNC(=O)c1cccc(NC(N)=S)c1)c1ccccc1 (stereo not drawn) [Example 116, ethyl β-[[2-[[[3-[(aminothioxomethyl)amino]phenyl]carbonyl]amino]acetyl]amino]benzenepropanoate] | 15500 | > 100000 |
| CCOC(=O)CC(NC(=O)CNC(=O)c1cccc(NC(=O)NCc2ccccc2)c1)c1ccc2c(c1)OCO2 (stereo not drawn) [Example 121, ethyl β-[[2-[[[3-[[[(phenylmethyl)amino]carbonyl]amino]phenyl]carbonyl]amino]acetyl]amino]-1,3-benzodioxole-5-propanoate] | 2840 | > 100000 |
| CCOC(=O)CC(NC(=O)CNC(=O)c1cccc(NC(=O)Nc2ccccc2)c1)c1ccc2c(c1)OCO2 (stereo not drawn) [Example 123, ethyl β-[[2-[[[3-3-[[(phenylamino)carbonyl]amino]phenyl]carbonyl]amino]acetyl]amino]-1,3-benzodioxole-5-propanoate] | 11800 | 85500 |
| CCN/C(=N\C#N)Nc1cccc(C(=O)NCC(=O)NC(CC(=O)OCC)c2ccccc2)c1 (stereo not drawn) [Example 135, ethyl β-[[2-[[[3-[[(cyanoimino)(ethylamino)methyl]amino]phenyl]carbonyl]amino]acetyl]amino]benzenepropanoate] | 50700 | > 100000 |
| CCOC(=O)CC(NC(=O)CNC(=O)c1cccc(N/C(=N/C#N)NCc2ccccn2)c1)c1ccccc1 (stereo not drawn) [Example 143, ethyl β-[[2-[[[3-[[(cyanoimino)[2-pyridinylmethyl)amino]methyl]amino]phenyl]carbonyl]amino]acetyl]amino]benzenepropanoate, trifluoroacetate salt] | 6700 | > 100000 |
| CCOC(=O)CC(NC(=O)CNC(=O)c1cccc(N/C(=N\C#N)NCc2cccnc2)c1)c1ccccc1 (stereo not drawn) [Example 145, ethyl β-[[2-[[[3-[[(cyanoimino)[3-pyridinylmethyl)amino]methyl]amino]phenyl]carbonyl]amino]acetyl]amino]benzenepropanoate, trifluoroacetate salt] | 2720 | > 100000 |
